Source: US7659271B2, “Pyrimidine compound having dibenzylamine structure and medicament comprising the same” (Kowa Company, Ltd., priority 2007, dated 2010)

molecular target: T1, CETP (Homo sapiens, UniProt P11597); test: Measurement of CETP inhibitory action in human plasma; format: biochemical; details: incubated with compound 37° C. 4 hours, Roar Biomedical CETP Activity kit, read-out: IC50 (concentration inhibiting the CETP activity by 50%)
T1 construct: The CETP activity in this plasma was measured with Cholesteryl Ester Transfer Protein Activity kit; from tissue; host or cells: human plasma
T1 sequence (P11597 18-493): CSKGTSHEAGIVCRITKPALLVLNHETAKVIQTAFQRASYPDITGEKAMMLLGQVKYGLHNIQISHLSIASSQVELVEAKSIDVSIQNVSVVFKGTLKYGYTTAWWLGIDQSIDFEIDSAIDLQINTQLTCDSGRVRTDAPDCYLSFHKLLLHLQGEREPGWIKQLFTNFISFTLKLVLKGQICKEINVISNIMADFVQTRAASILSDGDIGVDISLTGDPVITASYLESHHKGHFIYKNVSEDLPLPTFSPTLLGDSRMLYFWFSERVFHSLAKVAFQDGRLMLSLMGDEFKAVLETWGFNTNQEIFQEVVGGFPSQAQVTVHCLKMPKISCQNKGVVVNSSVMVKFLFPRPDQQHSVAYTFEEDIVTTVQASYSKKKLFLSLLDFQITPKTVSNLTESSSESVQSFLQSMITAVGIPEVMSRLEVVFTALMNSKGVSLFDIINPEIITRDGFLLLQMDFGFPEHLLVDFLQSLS
Procedure: A solution obtained by dissolving an exemplary compound in polyethylene glycol/N-methyl-2-pyrrolidone (vol/vol=1/1) was added to human plasma, and the mixture was incubated in an incubator at 37° C. for 4 hours. The CETP activity in this plasma was measured with Cholesteryl Ester Transfer Protein Activity kit (Roar Biomedical, catalog No.: RB-CETP). Specifically, to each well of a 96-well plate, 95 μL of a buffer (10 mM Tris, 150 mM NaCl, 2 mM EDTA, pH 7.4), 2 μL of Donor particle and 2 μL of Acceptor particle were added, 1 μL of the human plasma after the incubation was added to the mixture, and the mixture was incubated in an incubator at 37° C. for 2 hours. After completion of the incubation, fluorescence intensity (FLU) was measured with a fluorescence plate reader (excitation wavelength: 465 nm, emission wavelength: 535 nm). In accordance with the following equation 1, the CETP activity (% of control) was obtained for the compounds of the examples for two or more concentrations. CETP activity (% of control)=(Sample FLU−Blank FLU)×100/(Control FLU−Blank FLU) (Equation 1)
In the equation, the terms have the following meanings: […]
Blank FLU: Fluorescence intensity of sample not added with plasma
Control FLU: Fluorescence intensity of plasma not added with solution of compound
Sample FLU: Fluorescence intensity of plasma added with solution of compound
A value obtained by subtracting the value of the CETP activity from 100 was defined as the CETP inhibitory rate of each exemplary compound, and a concentration inhibiting the CETP activity by 50% (IC50) was calculated for each exemplary compound from the values of the CETP inhibitory rate at two or more concentrations.

SMILES | IC50 [nM]
CCN(CC1CCCC1)c1ccc(C(F)(F)F)cc1CN(c1ncc(OCC[S+](C)[O-])cn1)C(C)c1cc(C(F)(F)F)cc(C(F)(F)F)c1 (centres unmarked) [Example 2, N-{1-[3,5-bis(trifluoromethyl)phenyl]ethyl}-N-({2-[(cyclopentylmethyl)(ethyl)amino]-5-(trifluoromethyl)phenyl}methyl)-5-[2-(methylsulfinyl)ethoxy]pyrimidin-2-amine] | 40
CCN(CC1CCCC1)c1ccc(OC)cc1CN(c1ncc(OCCS(C)(=O)=O)cn1)C(C)c1cc(C(F)(F)F)cc(C(F)(F)F)c1 (centres unmarked) [Example 5, N-{1-[3,5-bis(trifluoromethyl)phenyl]ethyl}-N-({2-[(cyclopentylmethyl)(ethyl)amino]-5-methoxyphenyl}methyl)-5-[2-(methylsulfonyl)ethoxy]pyrimidin-2-amine] | 50
CCN(CC1CCCC1)c1c(F)cc(F)cc1CN(c1ncc(OCCS(C)(=O)=O)cn1)C(C)c1cc(C(F)(F)F)cc(C(F)(F)F)c1 (centres unmarked) [Example 7, N-{1-[3,5-bis(trifluoromethyl)phenyl]ethyl}-N-({2-[(cyclopentylmethyl)(ethyl)amino]-3,5-difluorophenyl}methyl)-5-[2-(methylsulfonyl)ethoxy]pyrimidin-2-amine] | 300
CCN(CC1CCCC1)c1ccc(C)cc1CN(c1ncc(OCCS(C)(=O)=O)cn1)C(C)c1cc(C(F)(F)F)cc(C(F)(F)F)c1 (centres unmarked) [Example 9, N-{1-[3,5-bis(trifluoromethyl)phenyl]ethyl}-N-({2-[(cyclopentylmethyl)(ethyl)amino]-5-methylphenyl}methyl)-5-[2-(methylsulfonyl)ethoxy]pyrimidin-2-amine] | 70
CCN(CC1CCCC1)c1cc(F)ccc1CN(c1ncc(OCCS(C)(=O)=O)cn1)C(C)c1cc(C(F)(F)F)cc(C(F)(F)F)c1 (centres unmarked) [Example 11, N-{1-[3,5-bis(trifluoromethyl)phenyl]ethyl}-N-({2-[(cyclopentylmethyl)(ethyl)amino]-4-fluorophenyl}methyl)-5-[2-(methylsulfonyl)ethoxy]pyrimidin-2-amine] | 250
CCN(CC1CCCC1)c1cc(OC)ccc1CN(c1ncc(OCCS(C)(=O)=O)cn1)C(C)c1cc(C(F)(F)F)cc(C(F)(F)F)c1 (centres unmarked) [Example 13, N-{1-[3,5-bis(trifluoromethyl)phenyl]ethyl}-N-({2-[(cyclopentylmethyl)(ethyl)amino]-4-methoxyphenyl}methyl)-5-[2-(methylsulfonyl)ethoxy]pyrimidin-2-amine] | 100
CCN(CC1CCCC1)c1cc(C(F)(F)F)ccc1CN(c1ncc(OCC[S+](C)[O-])cn1)C(C)c1cc(C(F)(F)F)cc(C(F)(F)F)c1 (centres unmarked) [Example 15, N-{1-[3,5-bis(trifluoromethyl)phenyl]ethyl}-N-({2-[(cyclopentylmethyl)(ethyl)amino]-4-(trifluoromethyl)phenyl}methyl)-5-[2-(methylsulfinyl)ethoxy]pyrimidin-2-amine] | 300
CCN(CC1CCCC1)c1cc(C(F)(F)F)ccc1CN(c1ncc(OCCS(C)(=O)=O)cn1)C(C)c1cc(C(F)(F)F)cc(C(F)(F)F)c1 (centres unmarked) [Example 16, N-{1-[3,5-bis(trifluoromethyl)phenyl]ethyl}-N-({2-[(cyclopentylmethyl)(ethyl)amino]-4-(trifluoromethyl)phenyl}methyl)-5-[2-(methylsulfonyl)ethoxy]pyrimidin-2-amine] | 150
CCN(CC1CCCC1)c1ccccc1CN(c1ncc(OCCS(C)(=O)=O)cn1)C(C)c1cc(C(F)(F)F)cc(C(F)(F)F)c1 (centres unmarked) [Example 20, N-{1-[3,5-bis(trifluoromethyl)phenyl]ethyl}-N-({2-[(cyclopentylmethyl)(ethyl)amino]phenyl}methyl)-5-[2-(methylsulfonyl)ethoxy]pyrimidin-2-amine] | 800
CCN(CC1CCCC1)c1cc(F)c(F)cc1CN(c1ncc(OCCS(C)(=O)=O)cn1)C(C)c1cc(C(F)(F)F)cc(C(F)(F)F)c1 (centres unmarked) [Example 22, N-{1-[3,5-bis(trifluoromethyl)phenyl]ethyl}-N-({2-[(cyclopentylmethyl)(ethyl)amino]-4,5-difluorophenyl}methyl)-5-[2-(methylsulfonyl)ethoxy]pyrimidin-2-amine] | 500
CCN(CC1CCCC1)c1cc(Cl)ccc1CN(c1ncc(OCCS(C)(=O)=O)cn1)C(C)c1cc(C(F)(F)F)cc(C(F)(F)F)c1 (centres unmarked) [Example 24, N-{1-[3,5-bis(trifluoromethyl)phenyl]ethyl}-N-({4-chloro-2-[(cyclopentylmethyl)(ethyl)amino]phenyl}methyl)-5-[2-(methylsulfonyl)ethoxy]pyrimidin-2-amine] | 300
CCN(CC1CCCC1)c1ccc(F)cc1CN(c1ncc(OCCS(C)(=O)=O)cn1)C(C)c1cc(C(F)(F)F)cc(C(F)(F)F)c1 (centres unmarked) [Example 26, N-{1-[3,5-bis(trifluoromethyl)phenyl]ethyl}-N-({2-[(cyclopentylmethyl)(ethyl)amino]-5-fluorophenyl}methyl)-5-[2-(methylsulfonyl)ethoxy]pyrimidin-2-amine] | 250
CCN(CC1CCCC1)c1cc(Br)ccc1CN(c1ncc(OCCS(C)(=O)=O)cn1)C(C)c1cc(C(F)(F)F)cc(C(F)(F)F)c1 (centres unmarked) [Example 28, N-{1-[3,5-bis(trifluoromethyl)phenyl]ethyl}-N-({4-bromo-2-[(cyclopentylmethyl)(ethyl)amino]phenyl}methyl)-5-[2-(methylsulfonyl)ethoxy]pyrimidin-2-amine] | 200
CCN(CC1CCCC1)c1ccc(Br)cc1CN(c1ncc(OCCS(C)(=O)=O)cn1)C(C)c1cc(C(F)(F)F)cc(C(F)(F)F)c1 (centres unmarked) [Example 30, N-{1-[3,5-bis(trifluoromethyl)phenyl]ethyl}-N-({5-bromo-2-[(cyclopentylmethyl)(ethyl)amino]phenyl}methyl)-5-[2-(methylsulfonyl)ethoxy]pyrimidin-2-amine] | 45
CCN(CC1CCCC1)c1ccc(C(F)(F)F)cc1CN(c1ncc(OCCS(C)(=O)=O)cn1)C(C)c1cc(C#N)cc(C(F)(F)F)c1 (centres unmarked) [Example 32, 3-{1-[({2-[(cyclopentylmethyl)(ethyl)amino]-5-trifluoromethylphenyl}methyl){5-[2-(methylsulfonyl)ethoxy]pyrimidin-2-yl}amino]ethyl}-5-(trifluoromethyl)benzonitrile] | 30
CCN(C[C@H]1CC[C@H](CC(=O)O)CC1)c1ccc(C(F)(F)F)cc1CN(c1ncc(OCCS(C)(=O)=O)cn1)C(C)c1cc(C(F)(F)F)cc(C(F)(F)F)c1 (stereo partly drawn) [Example 45, trans-{4-[({2-[({1-[3,5-bis(trifluoromethyl)phenyl]ethyl}{5-[2-(methylsulfonyl)ethoxy]pyrimidin-2-yl}amino)methyl]-4-(trifluoromethyl)phenyl}(ethyl)amino)methyl]cyclohexyl}acetic acid] | 120
CC(c1cc(C(F)(F)F)cc(C(F)(F)F)c1)N(Cc1cc(F)cc(F)c1N(CC1CC1)CC1CC1)c1ncc(OCCS(C)(=O)=O)cn1 (centres unmarked) [Example 47, N-({2-[bis(cyclopropylmethyl)amino]-3,5-difluorophenyl}methyl)-N-{1-[3,5-bis(trifluoromethyl)phenyl]ethyl}-5-[2-(methylsulfonyl)ethoxy]pyrimidin-2-amine] | 400
